According to patent US4783443A, “Amino acyl cephalosporin derivatives” (The University of Chicago, priority 1986, dated 1988):

Legend:
Assay in all cases: Minimum inhibitory concentration (MIC)
Type in all cases: cell-based
Escherichia coli Ceph^R = settings: Escherichia coli, read-out: Minimum Inhibitory Concentration
Text: (§1) The antibacterial effects of compounds of the invention have been assessed by determination of the minimum inhibitory concentration (M.I.C.) value against a variety of Gram-negative and -positive bacteria. The microbial susceptibility data for four compounds, together with those for the antibacterial dipeptide beta-Cl-LAla-beta-Cl-LAla, are given in Table I.
(§2) in uM to facilitate a meaningful comparison of the approximate MICs among
(§3) the tested compounds; an appreciation of the MIC values in ug/mL can be
(§4) obtained by multiplying each value (μM) by 0.55
(§5) ^(j) Resistant to cephalothin (MIC >200 uM);

Corynebacterium JKM-4754 = settings: Corynebacterium, JKM4754, read-out: Minimum Inhibitory Concentration
Text: as §1, §2, §3, §4, §5

Corynebacterium JKR-2285 = settings: Corynebacterium, JKR2285, read-out: Minimum Inhibitory Concentration
Text: as §1, §2, §3, §4, §5

Measured: MIC

CC(=O)OCC1=C(C(=O)O)N2C(=O)[C@@H](NC(=O)Cc3cccs3)[C@H]2SC1 [cephalothin, reference compound]
> 200 µM: all assays above
